Assay [1] deals with T1, HCV NS5A protein (Hepatitis C virus genotype 1b, UniProt Q9WMX2, S2204I).
T1 construct: processed into structural (C, E1, E2) and nonstructural (NS2, NS3, NS4A, NS4B, NS5A and NS5B) proteins; expressed in transfected cells; host or cells: Con1 cells (Huh-7.5 with the full-length genotype 1b replicon)
Nature of the assay: NS5A protein levels by Western blot in Con1 cells. The class given is cell-based. Particulars: ZnMP 0, 1, 5, 10 μM, 4 hours, FIG. 1B. The text has this:
(§1) Bartenschlager (University of Heidelberg, Heidelberg, Germany).
(§2) Biochim Biophys Acta 2008; 1779:195-203.
On the technique in general: Immunoblotting shows a protein as a band on a membrane.

A further assay deals with J6/JFH1 HCV RNA. The experiment in a line: HCV RNA by qRT-PCR in Huh-7.5 cells transfected with J6/JFH1 RNA. The class given is cell-based, hepatitis C virus. Particulars: 10 μM, FIG. 8E. How it is done:
(§3) Rice (the Rockefeller University, New York, N.Y.).
(§4) Total RNA from treated cells was extracted and cDNA was synthesized as described in Hou et al. Real time quantitative RT-PCR was performed using a MyiQ™ Single Color Real-Time PCR Detection System from Bio-Rad (Hercules, Calif.) and iQ™ SYBR Green Supermix Real-Time PCR kit (Bio-Rad). Samples without template and without reverse transcriptase were included as negative controls, which, as expected, produced negligible signals (Ct values>35). Fold-change values were calculated by comparative Ct analysis after normalizing for the quantity of GAPDH in the same samples.
(Quantitative PCR measures a nucleic acid by following its amplification.)

For assay [2], the target named is T2, HCV NS5A protein (Hepatitis C virus genotype 1b, UniProt Q9WMX2). The experiment in a line: NS5A protein half-life determination with cycloheximide in 9-13 cells. Particulars: 100 ug/mL CHX, 10 μM ZnMP, 0-4 h, FIGS. 4A, 4B. The class given is cell-based. More on the design: processed into structural (C, E1, E2) and nonstructural (NS2, NS3, NS4A, NS4B, NS5A and NS5B) proteins; expressed in transfected cells; host or cells: 9-13 cells (human hepatoma cells with a replicating HCV NS3-NS5B region).
T2 sequence (Q9WMX2 1973-2419): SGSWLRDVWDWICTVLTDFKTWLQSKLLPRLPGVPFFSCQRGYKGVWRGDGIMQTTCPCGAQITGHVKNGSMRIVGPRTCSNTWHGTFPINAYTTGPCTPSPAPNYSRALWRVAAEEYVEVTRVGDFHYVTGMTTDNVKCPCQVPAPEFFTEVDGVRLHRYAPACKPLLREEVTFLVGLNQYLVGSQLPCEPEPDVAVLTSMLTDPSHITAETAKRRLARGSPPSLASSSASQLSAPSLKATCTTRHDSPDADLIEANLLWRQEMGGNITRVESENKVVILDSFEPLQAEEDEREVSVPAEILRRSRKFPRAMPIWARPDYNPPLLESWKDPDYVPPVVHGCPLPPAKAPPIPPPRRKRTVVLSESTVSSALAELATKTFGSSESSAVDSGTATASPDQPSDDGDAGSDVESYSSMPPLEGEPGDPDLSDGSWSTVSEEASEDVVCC
Description: 9-13 cells were incubated with 100 ug/mL cycloheximide (CHX) in the presence or absence of 10 uM ZnMP. Western blots were performed using anti-HCV NS5A and anti-GAPDH antibodies. Band intensities of Western blots were measured by densitometric analysis. GAPDH bands were used as internal controls to correct for protein loadings.
9-13 cells were treated with 100 ug/mL cycloheximide (CHX) and with or without 10 μM ZnMP for the indicated periods (0, 0.5, 1, 2, 4 h), and then cells were harvested and total proteins were isolated. Proteins were separated on 4-15% SDS-polyacrylamide gel, transferred to a PVDF membrane, anti-HCV NS5A or GAPDH specific antibodies were used to detect NS5A or GAPDH protein levels by Western blot. […] The band intensity of NS5A from untreated sample (0 h) was set at 1.

Assay [3] concerns HCV core protein. Particulars: J6/JFH1 RNA transfected Huh-7.5 cells.
Description: In brief, total proteins (30-50 μg) were separated on 4-15% gradient SDS-PAGE gels. After electrophoretic transfer onto ImmunBlot PVDF membrane, membranes were blocked for 1 hour in PBS containing 5% nonfat dry milk and 0.1% Tween-20, and then incubated overnight with primary antibody at 4° C. The dilutions of the primary antibodies were as follows: 1:2000 for anti-HCV NS5A and anti-GAPDH antibodies, and 1:5000 for anti-HCV core antibody. The membranes were then incubated for 1 hour with horseradish peroxidase-conjugated secondary antibodies (dilution 1:10,000). Finally, the bound antibodies were visualized with the ECL-Plus chemiluminescence system according to the manufacturer's protocol. A Kodak 1DV3.6 computer-based imaging system (Rochester, N.Y.) was used to measure the relative optical density of each specific band obtained after Western blotting. Data are expressed as percentages of the controls (corresponding to the value obtained with the vehicle-treated cells), which were assigned values of one.
For HCV RNA transfection, Huh-7.5 cells were plated in 24-well plates one day prior to transfection and transfected at 70˜80% confluence. […]
Huh-7.5 cells were transfected with 2 μg/well of J6/JFH1 RNA by Lipofectamine 2000. […] HCV RNA was quantified by qRT-PCR, and HCV core, NS5A and GAPDH protein levels were measured by Western blots.
For assay [4], the target named is T2, HCV NS5A protein. Nature of the assay: polyubiquitination of NS5A by immunoprecipitation and immunoblot in 9-13 cells. The class given is cell-based. Further details: processed into structural (C, E1, E2) and nonstructural (NS2, NS3, NS4A, NS4B, NS5A and NS5B) proteins; expressed in transfected cells; host or cells: 9-13 cells (human hepatoma cells with a replicating HCV NS3-NS5B region). As for the experimental part: Immunoprecipitation was carried out according to the Manufacturer's protocol. Briefly, cells were harvested in cold radioimmunoprecipitation assay (RIPA) buffer (50 mM Tris-HC1 [pH 7.4], 150 mM NaCl, 1 mM EDTA, 0.25% sodium deoxycholate, 1% IGEPAL CA-630, 1 mM PMSF, 1 mM NaF, 1 mM Na3VO4 and 1 μg/ml each of aprotinin, leupeptin, and pepstatin). The samples were pre-cleared with Protein A/G Agarose for 10 min at 4° C. and subsequently incubated while gently rotating at 4° C. overnight with primary antibody, followed by Protein A/G beads for 1 h at 4° C. Beads were spun down and washed twice with RIPA buffer. Protein samples were separated by electrophoresis on 4-15% SDS-PAGE gels, and transferred to PVDF membrane, conjugated ubiquitin was detected as described for Western blot analysis using anti-ubiquitin antibody.
This Example investigates whether ZnMP induces polyubquitination of NS5A to gain insight into the mechanism by which ZnMP mediates degradation of NS5A protein. 9-13 cells were treated without or with 10 μM ZnMP for 4 h. Total proteins were extracted for subsequent Western blot or immunoprecipitation analysis. Immunoprecipitation was carried out using anti-HCV NS5A antibody. Ubiquitin conjugation of NS5A [polyubiquitinated NS5A (Ub)n-NS5A]was examined with immunoprecipitation using an anti-HCV NS5A antibody and immunoblot using an anti-ubiquitin antibody. […] In FIG. 6B, ubiquitination of NS5A following ZnMP treatment, or vehicle (DMSO) only was compared. The positions of molecular mass markers (in kilodaltons) are indicated to the left of the gel. The bracket indicates polyubiquitinated NS5A. Asterisks indicate cross-reacting immunoglobulin heavy chain. […] These bands may represent polyubiquitinated NS5A.

Another assay concerns J6/JFH1 HCV. The experiment in a line: HCV RNA by qRT-PCR in Huh-7.5 cells infected with J6/JFH1 HCV. The class given is cell-based, hepatitis C virus. Particulars: 10 μM, FIG. 8F. How it is done: as §3, §4
Assay [5] relates to HCV core protein. Particulars: CNS3 cells, 0, 1, 5, 10 μM, 4 hours, FIG. 1C.
Description: 9-13 cells, containing a replicating HCV nonstructural region, stably express HCV NS3 to NS5B. CNS3 cells stably express HCV core to NS3 (amino acid residues 1 through 1233 of the Con1 isolate; Gene Bank accession number AJ238799). Huh-7/T7 cells constitutively express the bacteriophage T7 RNA polymerase. The cells were maintained in DMEM supplemented with 10% (v/v) FBS and 500 μg/mL G418 for 9-13 cells, 10 μg/mL zeocin for CNS3 cells or 5 μg/mL zeocin for Huh-7/T7 cells. […] The Con1 cell line is a Huh-7.5 cell population containing the full-length HCV genotype 1b replicon with the highly adaptive serine to isoleucine substitution at amino acid 2204 of the polypeptide. […]
In brief, total proteins (30-50 μg) were separated on 4-15% gradient SDS-PAGE gels. […] Data are expressed as percentages of the controls (corresponding to the value obtained with the vehicle-treated cells), which were assigned values of one.
NS5A protein levels in 9-13 and Con1 cells, core protein levels in CNS3 cells, and NS5A and core protein levels in Huh-7/T7 cells transfected with pFK-Con1/GND (a plasmid encoding a replication deficient variant of Con1) exposed to different concentrations of ZnMP (0, 1, 5, 10 μM) for 4 hours were evaluated. […]
For assay [6], the target named is T2, HCV NS5A protein. The experiment in a line: NS5A protein levels by Western blot in 9-13 cells. The assay is classed as cell-based. More on the design: processed into structural (C, E1, E2) and nonstructural (NS2, NS3, NS4A, NS4B, NS5A and NS5B) proteins; expressed in transfected cells; host or cells: 9-13 cells (human hepatoma cells with a replicating HCV NS3-NS5B region).
Source text: as §1, §2

Assay [7] addresses T3, HCV NS5A protein (Hepatitis C virus genotype 2a, UniProt Q99IB8).
T3 construct: processed into structural (C, E1, E2) and nonstructural (NS2, NS3, NS4A, NS4B, NS5A and NS5B) proteins; expressed in transfected cells; host or cells: Huh-7.5 cells transfected with in vitro transcribed J6/JFH1 RNA
Nature of the assay: NS5A protein levels in Huh-7.5 cells transfected with J6/JFH1 RNA. The class given is cell-based. Particulars: J6/JFH1 RNA transfected Huh-7.5 cells, 4 or 24 h, FIGS. 8A-8D.
Source text: as §2, §3

A further assay deals with HCV replicon RNA. The experiment in a line: HCV RNA by qRT-PCR in Con1 full-length HCV replicon Huh-7.5 cells. Particulars: different concentrations, 24 hours, FIG. 7A. The assay is classed as cell-based, hepatitis C virus. As for the experimental part: as §1, §4
(§5) Total RNA and proteins were extracted.

The subject of the next assay is HCV core, NS5A. The experiment in a line: HCV protein levels by Western blot in Con1 cells, 24 hours. The assay is classed as cell-based, hepatitis C virus. Particulars: different concentrations, FIG. 7B.
Source text: as §1, §2, §5

Structures are written as SMILES. Read-outs that look alike come from different tables or passages of the source.

T1 sequence (Q9WMX2 1973-2419 S2204I): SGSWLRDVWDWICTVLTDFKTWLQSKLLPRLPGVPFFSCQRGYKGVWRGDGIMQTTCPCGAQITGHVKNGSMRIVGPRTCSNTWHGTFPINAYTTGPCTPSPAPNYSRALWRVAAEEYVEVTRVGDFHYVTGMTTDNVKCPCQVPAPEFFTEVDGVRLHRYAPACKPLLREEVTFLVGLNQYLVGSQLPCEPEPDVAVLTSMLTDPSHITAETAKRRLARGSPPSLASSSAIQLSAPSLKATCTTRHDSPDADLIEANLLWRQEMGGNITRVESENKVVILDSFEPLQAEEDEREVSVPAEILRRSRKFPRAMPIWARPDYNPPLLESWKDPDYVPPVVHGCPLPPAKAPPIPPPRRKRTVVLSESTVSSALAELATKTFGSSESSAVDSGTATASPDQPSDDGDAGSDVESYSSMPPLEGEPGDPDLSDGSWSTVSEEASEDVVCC
T3 sequence (Q99IB8 1977-2442): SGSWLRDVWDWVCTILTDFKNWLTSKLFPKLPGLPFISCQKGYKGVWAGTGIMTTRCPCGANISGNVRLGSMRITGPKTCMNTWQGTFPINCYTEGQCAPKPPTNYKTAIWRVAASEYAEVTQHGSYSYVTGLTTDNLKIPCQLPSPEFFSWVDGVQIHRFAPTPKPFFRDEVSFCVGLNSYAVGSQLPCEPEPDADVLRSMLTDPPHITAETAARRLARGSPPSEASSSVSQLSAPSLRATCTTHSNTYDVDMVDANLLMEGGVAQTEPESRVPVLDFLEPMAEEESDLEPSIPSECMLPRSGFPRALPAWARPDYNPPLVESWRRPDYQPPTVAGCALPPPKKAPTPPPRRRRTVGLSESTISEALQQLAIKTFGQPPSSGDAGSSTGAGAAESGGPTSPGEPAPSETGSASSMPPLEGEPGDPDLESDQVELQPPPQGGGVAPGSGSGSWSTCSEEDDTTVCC

For `CCC1=C(C)c2cc3[nH]c(cc4nc(cc5[n-]c(cc1n2)c(C)c5CCC(=O)[O-])C(CCC(=O)[O-])=C4C)c(C)c3CC.[H+].[Zn+2]` [ZnMP, Zinc mesoporphyrin], the NS5A protein levels entry at HCV NS5A protein [1] is “marked decrease”; on HCV NS5A protein [6] (9-13 cells, 10 μM ZnMP alone, 10 and 24 hours, FIG. 9B) it was “slightly increased”; at HCV NS5A protein [6] (9-13 cells, 10 μM ZnMP alone, as little as 2 hours, FIG. 9B), “rapid and marked down-regulation”; on HCV NS5A protein [6] (9-13 cells, 10 μM, 4 hours, FIG. 2A), “decreased”; at HCV NS5A protein [6] (9-13 cells, ZnMP 0, 1, 5, 10 μM, 4 hours, FIG. 1A) it was “marked decrease”; on HCV NS5A protein [7] it was “rapid and profound decrease”. Besides, the figures for the “decrease of HCV RNA levels” value in the assay on J6/JFH1 HCV RNA and in the assay with J6/JFH1 HCV were approximately 70% and approximately 90%, respectively. Also, the “NS5A protein levels in presence of cycloheximide” value on HCV NS5A protein [2] is “greatly and rapidly reduced”. The results for the core protein levels result in the assay with HCV core protein [3] (4 h) and in the assay on HCV core protein [3] (24 h) were “not affected” and “decrease”, respectively. In addition, the “polyubquitination of NS5A (summary statement)” value on HCV NS5A protein [4] is “induce polyubquitination”. Also, the “polyubquitination of NS5A” value on HCV NS5A protein [4] (9-13 cells, 10 μM, 4 h, FIG. 6B) is “induce polyubquitination”. Further, the “HCV core protein levels” value in the assay on HCV core protein [5] was “no detectable effects”. At HCV NS5A protein [6] (9-13 cells, 10 μM, 0, 2, 4, 6 h, FIG. 2B), the “NS5A protein levels, time course” value is “markedly and rapidly decreased”. Also, at HCV NS5A protein [6] (9-13 cells, 10 μM, 4 h, FIG. 6A), the “NS5A protein levels before immunoprecipitation” value is “down-regulation”. Also, the “reduction of NS5A protein levels” value at HCV NS5A protein [6] (about 1 μM, 4 hours, stated for bar graphs of FIGS. 1A/1B (9-13 and Con1 cells)) is “about 60%”. Moreover, in the assay with HCV replicon RNA, the “viral RNA levels” value is on record as “dose-dependent reduction”. The HCV protein levels result with HCV core, NS5A is reported as “dose-dependent reduction”.

For the origin of these results see patent US20100086519A1, “Treatment of Hepatitis C Infection With Metalloporphyrins” (The Charlotte-Mecklenburg Hospital Authority d/b/a …, priority 2008, published 2010).
